Our source for the IC50 values is PMC11309911 (British journal of pharmacology, 2024).

The target of this assay is Cav2.1 calcium channel α1 subunit (P/Q-type hCav2.1) (Homo sapiens, UniProt O00555). The assay is described as follows: whole-cell patch clamp of ICa in transfected HEK293-F cells. The format is cell-based. For orientation: The patch-clamp technique gives a direct electrical read-out from membranes.

Each structure is given as a SMILES string.

Sequence of Cav2.1 calcium channel α1 subunit (P/Q-type hCav2.1) (O00555 whole entry): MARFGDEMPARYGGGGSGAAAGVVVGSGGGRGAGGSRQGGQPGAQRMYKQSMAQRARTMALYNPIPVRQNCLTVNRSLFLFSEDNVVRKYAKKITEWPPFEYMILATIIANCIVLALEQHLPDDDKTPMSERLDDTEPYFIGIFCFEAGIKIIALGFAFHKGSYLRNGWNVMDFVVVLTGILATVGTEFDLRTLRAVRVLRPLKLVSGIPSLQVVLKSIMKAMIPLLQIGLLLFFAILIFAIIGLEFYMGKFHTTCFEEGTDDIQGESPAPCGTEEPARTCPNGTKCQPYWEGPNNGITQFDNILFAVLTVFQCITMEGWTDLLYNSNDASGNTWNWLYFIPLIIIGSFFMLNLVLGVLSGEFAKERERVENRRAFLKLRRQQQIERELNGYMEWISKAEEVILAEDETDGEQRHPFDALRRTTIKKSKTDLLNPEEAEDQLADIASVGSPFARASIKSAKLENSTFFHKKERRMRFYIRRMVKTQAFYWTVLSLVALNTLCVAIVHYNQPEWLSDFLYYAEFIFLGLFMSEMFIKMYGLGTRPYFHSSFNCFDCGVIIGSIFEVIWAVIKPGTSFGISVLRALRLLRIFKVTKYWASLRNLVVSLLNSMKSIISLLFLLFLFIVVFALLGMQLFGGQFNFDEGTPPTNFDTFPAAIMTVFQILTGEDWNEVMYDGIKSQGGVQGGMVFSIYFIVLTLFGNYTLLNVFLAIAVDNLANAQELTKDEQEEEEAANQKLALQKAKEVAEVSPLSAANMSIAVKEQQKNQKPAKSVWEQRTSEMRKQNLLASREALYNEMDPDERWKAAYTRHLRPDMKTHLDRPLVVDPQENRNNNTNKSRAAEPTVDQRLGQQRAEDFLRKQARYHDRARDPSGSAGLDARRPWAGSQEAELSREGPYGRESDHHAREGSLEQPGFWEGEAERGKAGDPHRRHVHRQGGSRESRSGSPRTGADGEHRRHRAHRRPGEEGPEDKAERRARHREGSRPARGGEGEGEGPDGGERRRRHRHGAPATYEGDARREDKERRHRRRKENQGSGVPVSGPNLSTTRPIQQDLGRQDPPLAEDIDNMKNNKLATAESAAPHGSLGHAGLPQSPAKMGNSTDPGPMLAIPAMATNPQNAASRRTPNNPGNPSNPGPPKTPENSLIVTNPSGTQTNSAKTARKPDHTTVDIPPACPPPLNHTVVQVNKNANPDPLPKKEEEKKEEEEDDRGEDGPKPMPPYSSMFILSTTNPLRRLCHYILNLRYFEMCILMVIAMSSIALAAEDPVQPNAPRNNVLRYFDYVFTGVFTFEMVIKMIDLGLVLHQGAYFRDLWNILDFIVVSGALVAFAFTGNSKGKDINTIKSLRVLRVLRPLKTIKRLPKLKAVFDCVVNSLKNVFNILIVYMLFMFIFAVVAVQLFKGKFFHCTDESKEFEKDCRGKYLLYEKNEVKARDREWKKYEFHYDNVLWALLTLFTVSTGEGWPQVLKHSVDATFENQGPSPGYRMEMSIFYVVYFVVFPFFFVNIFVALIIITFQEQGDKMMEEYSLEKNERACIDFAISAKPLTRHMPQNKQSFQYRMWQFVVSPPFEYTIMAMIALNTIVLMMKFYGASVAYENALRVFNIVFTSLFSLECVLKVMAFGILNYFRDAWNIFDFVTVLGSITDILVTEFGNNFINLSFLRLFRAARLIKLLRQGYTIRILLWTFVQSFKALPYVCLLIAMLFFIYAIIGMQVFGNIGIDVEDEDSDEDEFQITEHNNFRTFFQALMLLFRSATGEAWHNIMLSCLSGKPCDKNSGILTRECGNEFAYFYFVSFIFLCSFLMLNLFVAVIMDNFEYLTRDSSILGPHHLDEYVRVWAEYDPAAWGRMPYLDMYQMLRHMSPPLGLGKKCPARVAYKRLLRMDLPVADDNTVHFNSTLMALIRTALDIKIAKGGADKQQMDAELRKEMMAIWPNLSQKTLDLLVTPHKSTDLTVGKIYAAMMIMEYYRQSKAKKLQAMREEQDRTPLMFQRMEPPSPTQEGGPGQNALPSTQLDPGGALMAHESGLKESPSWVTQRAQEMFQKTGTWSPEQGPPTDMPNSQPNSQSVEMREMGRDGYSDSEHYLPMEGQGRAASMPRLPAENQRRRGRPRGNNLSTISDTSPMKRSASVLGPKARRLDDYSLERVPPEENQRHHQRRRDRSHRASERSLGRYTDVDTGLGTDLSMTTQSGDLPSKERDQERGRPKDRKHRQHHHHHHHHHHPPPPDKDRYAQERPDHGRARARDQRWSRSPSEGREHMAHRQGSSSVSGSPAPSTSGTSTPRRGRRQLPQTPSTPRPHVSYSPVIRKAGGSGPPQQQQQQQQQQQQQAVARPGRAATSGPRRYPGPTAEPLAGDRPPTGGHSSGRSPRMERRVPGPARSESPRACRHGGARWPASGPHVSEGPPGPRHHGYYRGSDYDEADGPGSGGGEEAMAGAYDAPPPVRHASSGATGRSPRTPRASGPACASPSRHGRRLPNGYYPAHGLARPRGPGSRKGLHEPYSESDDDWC

On to `N.N.N.N.N.N.N.N.[Cl][Ru+3].[NH]=[Ru][Cl]` [Ru265], for which the IC50 – broadly, the concentration needed to halve the response being measured – was approximately 2500 nM.
